This passage reports Ki results from BindingDB's records for PubMed 2704370 (National Institute of Mental Health, 1989).

Usually Ki stands for the equilibrium dissociation constant of an inhibitor or competing ligand from its target. A high value points to a looser hold on the target.

The target of assay [1] is T1, Muscarinic acetylcholine receptor M1 (Rattus norvegicus, UniProt P08482).
T1 sequence (P08482 whole entry): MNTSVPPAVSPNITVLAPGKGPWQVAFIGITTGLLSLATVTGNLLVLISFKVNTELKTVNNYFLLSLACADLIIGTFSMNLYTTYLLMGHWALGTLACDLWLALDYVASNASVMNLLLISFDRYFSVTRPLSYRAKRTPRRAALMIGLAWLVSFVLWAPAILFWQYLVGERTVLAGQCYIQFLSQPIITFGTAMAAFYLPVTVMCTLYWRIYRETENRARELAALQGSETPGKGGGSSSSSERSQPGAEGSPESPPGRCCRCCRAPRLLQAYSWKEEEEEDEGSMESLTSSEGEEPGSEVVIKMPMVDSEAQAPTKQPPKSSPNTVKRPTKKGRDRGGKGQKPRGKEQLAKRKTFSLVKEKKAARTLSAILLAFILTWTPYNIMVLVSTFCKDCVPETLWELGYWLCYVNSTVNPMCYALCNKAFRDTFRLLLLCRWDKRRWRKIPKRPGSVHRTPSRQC

In assay [2] the target is T2, Muscarinic acetylcholine receptor M4 (Homo sapiens, UniProt P08173).
T2 sequence (P08173 whole entry): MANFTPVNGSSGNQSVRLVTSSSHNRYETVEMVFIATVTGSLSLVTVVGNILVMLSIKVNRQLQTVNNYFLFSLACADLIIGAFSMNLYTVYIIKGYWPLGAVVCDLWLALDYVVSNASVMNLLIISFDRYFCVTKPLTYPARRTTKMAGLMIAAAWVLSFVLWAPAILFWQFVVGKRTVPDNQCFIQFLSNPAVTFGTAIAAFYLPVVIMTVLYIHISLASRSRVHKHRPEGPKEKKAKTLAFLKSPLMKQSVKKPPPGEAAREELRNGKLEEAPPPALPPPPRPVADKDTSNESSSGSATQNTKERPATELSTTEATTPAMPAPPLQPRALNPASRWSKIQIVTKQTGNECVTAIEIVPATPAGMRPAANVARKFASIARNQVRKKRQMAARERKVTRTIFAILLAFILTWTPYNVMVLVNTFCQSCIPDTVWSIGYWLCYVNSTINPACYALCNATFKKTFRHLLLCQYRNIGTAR

Assay [3] concerns the target T3, Muscarinic acetylcholine receptor M5 (Homo sapiens, UniProt P08912).
T3 sequence (P08912 whole entry): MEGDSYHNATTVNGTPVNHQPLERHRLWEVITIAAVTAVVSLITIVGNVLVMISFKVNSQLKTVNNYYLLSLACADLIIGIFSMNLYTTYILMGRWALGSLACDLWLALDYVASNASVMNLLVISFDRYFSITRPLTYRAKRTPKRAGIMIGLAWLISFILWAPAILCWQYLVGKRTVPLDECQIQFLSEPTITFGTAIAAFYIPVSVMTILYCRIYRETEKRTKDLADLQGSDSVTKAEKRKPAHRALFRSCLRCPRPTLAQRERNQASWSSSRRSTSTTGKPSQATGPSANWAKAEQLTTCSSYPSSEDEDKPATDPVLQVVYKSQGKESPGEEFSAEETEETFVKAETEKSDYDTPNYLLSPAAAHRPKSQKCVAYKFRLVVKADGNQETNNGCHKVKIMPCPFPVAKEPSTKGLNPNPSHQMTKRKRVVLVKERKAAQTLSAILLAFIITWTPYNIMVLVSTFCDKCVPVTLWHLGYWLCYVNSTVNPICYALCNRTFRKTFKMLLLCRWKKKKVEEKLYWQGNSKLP

As for `C[N+]1(C)CCN(CC(O)(c2ccccc2)C2CCCCC2)CC1` (stereo unspecified) [CAS_115-63-9], the Ki was 2.3 nM in assay [1], 5.5 nM in assay [2] and 3.7 nM in assay [3].
Take `OC(CCCN1CCCCC1)(c1ccccc1)C1CCCCC1` (stereo unspecified) [CAS_113010-69-8]: the Ki in assay [1] was 11 nM; in assay [3], 83 nM.
`C[N+]1([SiH3])CCN(CC(O)(c2ccccc2)C2CCCCC2)CC1` (stereo unspecified) [CAS_124393-85-7]: the inhibition constant Ki in assay [1] was 2 nM; in assay [2], 3.2 nM; in assay [3], 2 nM.
For the molecule `O[Si](CCCN1CCCCC1)(c1ccccc1)C1CCCCC1` (stereo unspecified) [HHSiD], the inhibitory constant (Ki) came out at 44 nM in assay [1] and 63 nM in assay [3].
For `COc1ccccc1CNCCCCCCNCCCCCCCCNCCCCCCNCc1ccccc1OC` [METHOCTRAMINE], the Ki in assay [3] is 57 nM.
